Test results: patent publication EP2790511B1 (Merck Sharp & Dohme Corp., priority 2011, dated 2013)

Molecular target: T1, hROMK (hKir1.1) (Homo sapiens, UniProt P48048)
T1 construct: expressed in transfected cells
T1 sequence (P48048 1-391): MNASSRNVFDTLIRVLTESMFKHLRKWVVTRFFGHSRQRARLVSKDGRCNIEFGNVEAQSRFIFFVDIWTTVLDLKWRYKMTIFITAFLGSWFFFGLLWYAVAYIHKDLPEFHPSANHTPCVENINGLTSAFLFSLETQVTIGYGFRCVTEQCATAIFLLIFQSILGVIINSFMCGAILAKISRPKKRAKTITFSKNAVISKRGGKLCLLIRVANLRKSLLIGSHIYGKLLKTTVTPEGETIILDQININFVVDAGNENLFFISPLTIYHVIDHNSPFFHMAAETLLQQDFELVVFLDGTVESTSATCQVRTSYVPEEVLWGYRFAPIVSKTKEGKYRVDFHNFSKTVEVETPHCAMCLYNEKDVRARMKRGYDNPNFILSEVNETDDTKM
Assay: Thallium Flux Assay
Assay type: cell-based
Conditions: HEK293 cells stably expressing hROMK (hKir1.1), FLIPR-Tetra; read-out: Thallium Flux IC50
Protocol: Cell Culture Conditions- HEK293 cells stably expressing hROMK (hKir1.1) were grown at 37°C in a 10%CO2 humidified incubator in complete growth media: Dulbecco's Modified Eagle Medium supplemented with non-essential amino acids, Penicillin/Streptomycin/Glutamine, G418 and FBS. At >80% confluency, aspirate the media from the flask and rinse with 10 mL Calcium/Magnesium-free PBS. […] To dislodge the cell, gently bang the side of the flask with your hand. Triturate the cells completely and then transfer the cells to 25 mL complete media. Centrifuge at 1,500 rpm for 6 min followed by resuspension in complete growth media and determine cell concentration. […] Under ideal growth conditions and appropriate tissue culture practices, this cell line is stable for 40-45 passages.
• FluxOR™ Reagent (Component A) • FluxOR™ Assay Buffer (Component B) - 10X Concentrate • PowerLoad™ Concentrate (Component C) - 100X Concentrate • Probenecid (Component D) - Lyophilized sample is kept at -20°C. Water soluble, 100X after solubilization in 1 mL water. […] Store at 4°C. • Thallium sulfate (Tl2SO4) Concentrate (Component G) - 50 mM in water. Store at 4°C • DMSO (dimethyl sulfoxide, Component H) - 1 mL (100%)
• 1000X FluxOR™ Reagent: Reconstitute a vial of component A in 100 µl DMSO; Mix well; Store 10 µl aliquots at -20°C • 1X FluxOR™ Assay Buffer: Dilute Component B 10-fold with water; Adjust pH to 7.4 with Hepes/NaOH; Filter and store at 4°C • Probenecid/Assay Buffer: 100 mL of 1X FluxOR™ Assay Buffer; 1 mL of reconstituted component D; Store at 4°C • Loading Buffer (per microplate): 10 µl 1000X FluxOR™ Reagent; 100 µl component C; 10 mL Probenecid/Assay Buffer • Compound Buffer (per microplate): 20 mL Probenecid/Assay Buffer; 0.3 mM ouabain (10 mM ouabain in water can be stored in amber bottle/aluminum foil at room temperature); Test compound • 1X FluxOR™Chloride-Free Buffer: Prepare 1X working solution in water. Can be stored at room temperature • Stimulant Buffer (prepared at 5X final concentration in 1X FluxOR™Chloride-Free Buffer): 7.5 mM Thallium sulfate and 0.75 mM Potassium sulfate (to give a final assay concentration of 3 mM Thallium/ 0.3 mM Potassium). Store at 4°C when not in use. If kept sterile, this solution is good for months.
Assay protocol- The ROMK channel functional thallium flux assay is performed in 384 wells, using the FLIPR-Tetra instrument. HEK-hKir1.1 cells are seeded in Poly-D-Lysine microplates and kept in a 37°C-10%CO2 incubator overnight. On the day of the experiment, the growth media is replaced with the FluxOR™ reagent loading buffer and incubated, protected from light, at ambient temperature (23-25°C) for 90 min. The loading buffer is replaced with assay buffer ± test compound followed by 30 min incubation at ambient temperature, where the Thallium/Potassium stimulant is added to the microplate.
• 1. Seed HEK-hKir1.1 cells (50 µl at 20,000 cells/well) in 384-well PDL coated Microplates • 2. Allow cells to adhere overnight in humidified 37°C/10%CO2 incubator • 3. Completely remove cell growth media from microplate and replace with 25 µl loading buffer • 4. Incubate Microplate at room temperature, protected form light, for 90 min • 5. Remove loading buffer and replace with 25 µl 1x Assay Buffer ± test compound. • 6. Incubate microplate at room temperature, protected form light, for 30 min • 7. […] Excitation = 400 nm, Emission = 460 & 580 nm. Collect data for ∼ 10 min.
Data Calculation- The fluorescence intensity of wells containing 3 µM of a standard control ROMK inhibitor of the present invention is used to define the ROMK-sensitive component of thallium flux. Fluorescence in the presence of test compounds is normalized to control values to provide % fluorescence change.

Structure (SMILES) | IC50 [nM]
Cc1c([C@H]2CN3CCN(C(=O)Cc4cnc(-n5cnnn5)nc4)C[C@H]3CN2)ccc(F)c1C#N [Example 189, 3-((3S,9aR)-8-(2-(2-(1H-tetrazol-1-yl)pyrimidin-5-yl)acetyl)octahydro-1H-pyrazino[1,2-a]pyrazin-3-yl)-6-fluoro-2-methylbenzonitrile] | 120
Cc1c([C@@H]2CN3CCN(C(=O)Cc4cnc(-n5cnnn5)c(F)c4)C[C@H]3CO2)ccc(F)c1C#N [Example 148, 6-fluoro-3-[(3R,9aS)-8-{[5-fluoro-6-(1H-tetrazol-1-yl)pyridin-3-yl]acetyl}octahydropyrazino[2,1-c][1,4]oxazin-3-yl]-2-methylbenzonitrile] | 80
Cc1c([C@H]2CN3CCN(C(=O)Cc4ccc(-n5cnnn5)cn4)C[C@H]3CO2)csc1C#N [Example 71, 3-methyl-4-[(3S,9aS)-8-{[5-(1H-tetrazol-1-yl)pyridin-2-yl]acetyl}octahydropyrazino[2,1-c][1,4]oxazin-3-yl]thiophene-2-carbonitrile] | 390
Cc1nc(-n2cnnn2)ncc1CC(=O)N1CCN2C[C@@H](c3ccc(F)c(C#N)c3C)OC[C@H]2C1 [Example 120, 6-fluoro-2-methyl-3-[(3R9aR)-8-{[4-methyl-2-(1H-tetrazol-1-yl)pyrimidin-5-yl]acetyl}octahydropyrazino[2,1-c][1,4]oxazin-3-yl]benzonitrile] | 200
Cc1c([C@@H]2CN3CCN(C(=O)Cc4ccc(-n5cnnn5)cn4)C[C@H]3CN2)ccc(F)c1C#N [Example 195, 6-fluoro-2-methyl-3-[(3R,9aR)-8-{[5-(1H-tetrazol-1-yl)pyridin-2-yl]acetyl}octahydro-2H-pyrazino[1,2-a]pyrazin-3-yl]benzonitrile] | 250
O=C1OCc2c1ccc([C@H]1CN3CCN(C(=O)Cc4ccc(-n5cnnn5)nc4)C[C@H]3CO1)c2Br [Example 48, 4-bromo-5-[(3S,9aS)-8-{[6-(1H-tetrazol-1-yl)pyridin-3-yl]acetyl}octahydropyrazino[2,1-c][1,4]oxazin-3-yl]-2-benzofuran-1(3H)-one] | 150
Cc1c([C@H]2CN3CCN(C(=O)C(F)(F)c4cnc(-n5cnnn5)nc4)C[C@H]3CO2)ccc(F)c1C#N [Example 188, 3-((3S,9aS)-8-(2-(2-(1H-tetrazol-1-yl)pyrimidin-5-yl)-2,2-difluoroacetyl)octahydropyrazino[2,1-c][1,4]oxazin-3-yl)-6-fluoro-2-methylbenzonitrile] | 350
Cc1cc([C@@H]2CN3CCN(C(=O)Cc4ccc(-n5cnnn5)nc4)C[C@@H]3CO2)c(C)c(C#N)c1F [Example 174, 2-fluoro-3,6-dimethyl-5-[(3R,9aR)-8-{[6-(1H-tetrazol-1-vl)pvridin-3-yl]acetyl}octahydropyrazino[2,1-c][1,4]oxazin-3-yl]benzonitrile] | 350
Cc1c([C@@H]2CN3CCN(C(=O)Cc4cnc(-n5cnnn5)c(F)c4)C[C@@H]3CO2)ccc(F)c1C#N [Example 146, 6-fluoro-3-[(3R,9aR)-8-{[5-fluoro-6-(1H-tetrazol-1-yl)pyridin-3-yl]acetyl}octahydropyrazino[2,1-c][1,4]oxazin-3-yl]-2-methylbenzonitrile] | 90
Cc1c([C@@H]2CN3CCN(C(=O)Cc4cnc(-n5cnnn5)nc4)C[C@@H]3CO2)ccc2c1COC2=O [Example 122, 4-methyl-5-[(3R,9aR)-8-{[2-(1H-tetrazol-1-yl)pyrimidin-5-yl]acetyl}octahydropyrazino[2,1-c][1,4]oxazin-3-yl]-2-benzofuran-1(3H)-one] | 390
COc1c([C@H]2CN3CCN(C(=O)Cc4ccc(-n5cnnn5)cn4)C[C@H]3CO2)ccc(F)c1C#N [Example 63, 6-fluoro-2-methoxy-3-[(3S,9aS)-8-{[5-(1H-tetrazol-1-vl)pvridin-2-yl]acetyl}octahydropyrazino[2,1-c][1,4]oxazin-3-yl]benzonitrile] | 180
Cc1cc(CC(=O)N2CCN3C[C@@H](c4ccc(F)c(C#N)c4C)OC[C@H]3C2)ncc1-n1cnnn1 [Example 129, 6-fluoro-2-methyl-3-[(3R,9aR)-8-{[4-methyl-5-(1H-tetrazol-1-yl)pyridin-2-yl]acetyl}octahydropyrazino[2,1-c][1,4]oxazin-3-yl]benzonitrile] | 250
Cc1c([C@@H]2CN3CCN(C(=O)Cc4cnc(-n5cnnn5)nc4C(F)(F)F)C[C@H]3CO2)ccc(F)c1C#N [Example 159, 6-fluoro-2-methyl-3-[(3R,9aS)-8-{[2-(1H-tetrazol-1-yl)-4-(trifluoromethyl)pyrimidin-5-yl]acetyl}octahydropyrazino[2,1-c][1,4]oxazin-3-yl]benzonitrile] | 260
Cc1c([C@@H]2CN3CCN(C(=O)Cc4ccc(-n5cnnn5)nc4)C[C@H]3CCO2)ccc(F)c1C#N (single isomer, unassigned) [Example 171] | 270
COc1c([C@@H]2CN3CCN(C(=O)Cc4ccc(-n5cnnn5)cn4)C[C@H]3CO2)ccc(F)c1C#N [Example 62, 6-fluoro-2-methoxy-3-[(3R,9aS)-8-{[5-(1H-tetrazol-1-vl)pvridin-2-yl]acetyl}octahydropyrazino[2,1-c][1,4]oxazin-3-yl]benzonitrile] | 460
Cc1c([C@@H]2CN3CCN(C(=O)Cc4ccc(-n5cnnn5)nc4)C[C@H]3CO2)ccc2nonc12 [Example 177, (3R,9aS)-3-(4-methyl-2,1,3-benzoxadiazol-5-yl)-8-{[6-(1H-tetrazol-1-yl)pyridin-3-yl]acetyl}octahydropyrazino[2,1-c][1,4]oxazine] | 250

Same assay, conditions: Thallium Flux IC50

Structure (SMILES) | IC50 [nM]
N#Cc1c(F)ccc([C@@H]2CN3CCN(C(=O)Cc4cnc(-n5cnnn5)nc4)C[C@@H]3CO2)c1Cl [Example 125, 2-chloro-6-fluoro-3-[(3R,9aR)-8-{[2-(1H-tetrazol-1-yl)pyrimidin-5-yl]acetyl}octahydropyrazino[2,1-c][1,4]oxazin-3-yl]benzonitrile] | 60
Cc1c([C@@H]2CN3CCN(C(=O)Cc4ccc(-n5cnnn5)nc4)C[C@@H]3CO2)ccc2c1COC2=O [Example 23] | 70
Cc1cc(-n2cnnn2)ncc1CC(=O)N1CCN2C[C@H](c3ccc(F)c(C#N)c3C)OC[C@@H]2C1 [Example 43, 6-fluoro-2-methyl-3-[(3S,9aS)-8-{[4-methyl-6-(1H-tetrazol-1-vl)pvridin-3-yl]acetyl}octahydropyrazino[2,1-c][1,4]oxazin-3-yl]benzonitrile] | 90
Cc1c(C#N)cccc1[C@@H]1CN2CCN(C(=O)Cc3ccc(-n4cnnn4)nc3)C[C@H]2CO1 [Example 91, 2-methyl-3-[(3R,9aS)-8-{[6-(1H-tetrazol-1-yl)pyridin-3-yl]acetyl}octahydropyrazino[2,1-c][1,4]oxazin-3-yl]benzonitrile] | 60
